{
  "source": "patent US20100261658A1",
  "about": "“PEPTIDE FOR ACTIVATING AQUAPORIN SYNTHESIS” (priority 2007, published 2010)",
  "test_system": "aquaporin 3",
  "test": "Expression of aquaporin 3 by immunofluorescence in samples of skin ex vivo",
  "format": "cell-based, human",
  "conditions": "1% solution of a mother solution at 50 ppm applied topically, 24 hours or 48 hours; in particular upper layers of the epidermis; vs non-treated control",
  "protocol": "The aim of this study is to determine the influence of the peptide SEQ ID no 5 on the expression of aquaporin 3 in samples of skin ex vivo.\nProtocol: Samples of human skin are cultured at the air/liquid interface. A 1% solution of a mother solution at 50 ppm of peptide SEQ ID no 4 is applied topically, then the samples are incubated for 24 hours or 48 hours.\nThese skin samples are then fixed with formaldehyde then enclosed in paraffin. Sections of 2 to 3 μm are then realized. The immunolabeling is carried out after different stages of washing and incubation of these sections. The immunolabeling is carried out by means of a specific polyclonal antibody of aquaporin 3 (anti-aquaporin 3 (C-18): goat polyclonal, sc-9885, Santa Cruz, dilution 1/100th), then a secondary antibody, coupled to a fluorescent marker (alexa-fluor 488 donkey anti-goat Ig G, Molecular Probes, dilution 1/1000th). The skin sections are then examined by epifluorescence microscope (Nikon Eclipse E600 microscope).",
  "note": "Peptide text beside a SMILES is read from it.",
  "data": [
    {"molecule": "C[C@H](NC(=O)[C@@H]1CCCN1C(=O)[C@@H](N)CC(N)=O)C(=O)N[C@@H](CCCNC(=N)N)C(=O)O", "note": "[SEQ ID no 4, Asn-Pro-Ala-Arg] (H-NPAR-OH; N-terminus and C-terminus assumed)", "values": [
      {"measurement": "aquaporin 3 immunofluorescence", "value": "stronger fluorescence"}
    ]}
  ]
}
